Where no end group is shown, it is not given here.
Legend:
[1] = tested on: Escherichia coli ATCC 25922; assay: Internalization of DPV fluorescent conjugates in E. coli (epifluorescence microscopy); format: cell-based; settings: tested as Bodipy conjugate, 1 μM, 30 minutes at 37° C., non-fixed bacteria
Experimental: (§1) The bacteria in an exponential phase of culture were centrifuged and washed three times with the 10 mM, pH7.4 sodium phosphate buffer (NAPB buffer). The bacterial concentration was adjusted to 1×10^6 cfu/ml (colony-forming units) in the NAPB buffer. 50 μl of the bacterial suspension was deposited on a poly-L-Lysine slide. After 30 minutes incubation at 37° C. in a humid chamber, the bacteria immobilized on the slide were rinsed three times with the NAPB buffer. A 50 μl solution of DPV-Bodipy or DPV-TMR conjugate or control product was, deposited on the bacteria. After incubation for 30 minutes at 37° C. in a humidity chamber and away from light, the slides were rinsed three times with the NAPB buffer. The bacteria may be fixed on the slide by incubating 20 minutes at 37° C., away from light. A drop of 50% PBS/Glycerol was deposited on the slide and covered by a cover glass. After sealing the cover glass on the slide, bacterial fluorescence was observed under a Leica epifluorescence optical microscope (40× or 63× immersion lens). The images were taken with a digital Nikon Coolpix camera with maximum zoom and a 0.63× adapter. A more detailed analysis was performed with a confocal Bio-rad MRC 600 microscope (BIO-RAD Microscience Ltd., Hemel Hempstead, England), provided with an inverse optical microscope and an ×100 immersion lens. The bacteria were visualized by their fluorescence after excitation with a krypton/argon laser. Several sections of 0.1-0.2 μm bacteria were made.
The immobilized bacteria on a poly-L-Lysine slide were incubated with 1 μM of DPV-Bodipy conjugate for 30 minutes at 37° C.
The E. coli bacteria were incubated for 30 minutes at 37° C. with 1 μM of DPV-Bodipy conjugate, as described in paragraph I.8.a. The internalization of fluorescent DPV-Bodipy conjugates in the non-fixed bacteria was visualized under an epifluorescence microscope. […] With the DPV11 and DPV12 peptides (FIGS. 31 and 3J), heterogeneous fluorescence levels in one single bacterial population was obtained. The internalization properties of these peptides were weaker. […] (FIG. 3L).
The internalization of the DPV3 TMR conjugate was evaluated on E. coli bacteria immobilized on a poly-L-Lysine slide or in suspension. The bacteria were incubated with 1 μM of DPV3-TMR conjugate or the Cyst-TMR control for 30 minutes at 37° C., and then either fixed or not on the slide before visualization in an epifluorescence optical microscope.

[2] = tested on: Pseudomonas aeruginosa ATCC 27853; assay: Internalization of DPV-Bodipy conjugates in P. aeruginosa (epifluorescence microscopy); format: cell-based; settings: tested as Bodipy conjugate, 1 μM, 30 minutes at 37° C.
Experimental: as §1, with “A more detailed analysis was performed with a confocal Bio-rad MRC 600 microscope (BIO-RAD Microscience Ltd., Hemel Hempstead, England), provided with an inverse optical microscope and an ×100 immersion lens.” left out, “Several sections of 0.1-0.2 μm bacteria were made.” left out

[3] = tested on: Gram-negative bacterium (E. coli, P. aeruginosa); assay: Classification of DPVs by internalization level in the two bacterial strains; format: cell-based; settings: for Classification of DPVs: level of internalization: DPV-Bodipy conjugates, accumulation in bacterial cytoplasm, E. coli and P. aeruginosa; for Internalization properties in prokaryotic cells (Gram-negative bacteria): compared with the eukaryotic cell
Experimental: as §1
Generally, the internalization of DPV is almost identical for the two bacterial strains that were studied.

eukaryotic cells = settings: cited from earlier work; for Localization in the eukaryotic cells: chemically coupled to the peroxydase protein or IgG, WO 01/64738
P. aeruginosa = assay: Confocal microscopy localization in P. aeruginosa; format: cell-based, Pseudomonas aeruginosa; settings: 3 μM, 37° C., 30 mins., bacteria fixed
Experimental: as §1, with “A more detailed analysis was performed with a confocal Bio-rad MRC 600 microscope (BIO-RAD Microscience Ltd., Hemel Hempstead, England), provided with an inverse optical microscope and an ×100 immersion lens.” left out, “Several sections of 0.1-0.2 μm bacteria were made.” left out

E. coli ATCC 25922 = assay: Chessboard method, DPV peptide and erythromycin, E. coli; format: cell-based, Escherichia coli; settings: MH medium, 18 hours at 37° C.
Experimental: The dilution ranges were prepared according to a geometric progression of ration 2. 25 μl of the product solutions in MH medium with a concentration four times higher than the desired final concentration or 25 μl of the MH medium (for the lines 0), were distributed in the wells according to the chart below (Table 2), in order to obtain a final volume of 50 μl per well: An isolated colony of the bacterium E. coli ATCC 25922 or P. aeruginosa ATCC 27853 was placed in suspension in 3 to 5 ml of the MH culture medium and incubated at 37° C. for one night, while stirring. From this night culture, a culture in exponential growth phase of the strain was made; the MH medium was seeded at 1/50 é with the night culture and incubated for two hours at 37° C., while stirring. The bacterial concentration was adjusted to 5×10^5-10 s cfu/ml (colony-forming units) in the MH medium. […] The CMI was expressed in μg/ml (mg/1). […] An index below or equal to 0.5 indicates a synergy, an index above 2, an antagonism.

Substance	Internalization in E. coli (description of FIG. 3) [1]	Internalization in P. aeruginosa compared with E. coli (FIG. 5) [2]	Classification of DPVs: level of internalization [3]	Localization in the eukaryotic cells (eukaryotic cells)	Internalization properties in prokaryotic cells (Gram-negative bacteria) [3]	Internalization properties in the eukaryotic cell (eukaryotic cells)	Localization of Bodipy conjugate in P. aeruginosa (confocal, FIG. 6) (P. aeruginosa)	CMI, product alone (E. coli ATCC 25922)
Gly Arg Pro Arg Glu Ser Gly Lys Lys Arg Lys Arg Lys Arg Leu Lys Pro (GRPRESGKKRKRKRLKP; C-terminal Cys; listed as Homo sapiens) [DPV6]	highly penetrating	more internalizing in P. aeruginosa	medium internalization	cytoplasmic localization peptides				
Leu Arg Arg Glu Arg Gin Ser Arg Leu Arg Arg Glu Arg Gin Ser Arg (LRRERQSRLRRERQSR; C-terminal Cys; listed as Homo sapiens) [DPV15]	highly penetrating		medium internalization	nuclear localization peptides				
Gin Gly Lys Ser Lys Arg Glu Lys Lys Asp Arg Val Phe (QGKSKREKKDRVF; C-terminal Cys; listed as Homo sapiens) [DPV12]	weaker				same property	do not have any internalization properties		
Ala Lys Thr Gly Lys Arg Lys Arg Ser Gly (AKTGKRKRSG; C-terminal Cys added; listed as Homo sapiens) [DPV11]	weaker				same property	do not have any internalization properties		
Gly Lys Arg Lys Lys Lys Gly Lys Leu Gly Lys Lys Arg Asp Pro (GKRKKKGKLGKKRDP; C-terminal Cys; listed as Homo sapiens) [DPV7]			medium internalization	cytoplasmic localization peptides				
Arg Lys Lys Arg Arg Arg Glu Ser Arg Arg Ala Arg Arg Ser Pro Arg His Leu (RKKRRRESRRARRSPRHL; C-terminal Cys; listed as Homo sapiens) [DPV3.10]	highly penetrating		elevated internalization	cytoplasmic localization peptides				
Asn Pro Gly Val Ser Thr Val Val Leu Gly Ala Tyr Asp Leu Arg Arg Arg Glu Arg Gin Ser Arg (NPGVSTVVLGAYDLRRRERQSR; N-terminal Cys; listed as Homo sapiens) [DPV19]	did not penetrate into the bacteria				same property	do not have any internalization properties		
RKKRRRESRKKRRRES [DPV3]	highly penetrating		elevated internalization	cytoplasmic localization peptides			able to pass through the external membrane	128 µg/mL
Val Lys Arg Gly Leu Lys Leu Arg Gin Lys Tyr Asn Lys Arg Ala Met Asp Tyr (VKRGLKLRQKYNKRAMDY; N-terminal Cys added; listed as Homo sapiens) [DPV1121]			weak internalization	nuclear localization peptides				
Gly Lys Arg Lys Lys Lys Gly Lys Leu Gly Lys Lys Arg Pro Arg Ser Arg (GKRKKKGKLGKKRPRSR; C-terminal Cys; listed as Homo sapiens) [DPV7b]		more internalizing in P. aeruginosa than in E. coli	medium internalization	cytoplasmic localization peptides			able to pass through the external membrane	
Gly Ala Tyr Asp Leu Arg Arg Arg Glu Arg Gin Ser Arg Leu Arg Arg Arg Glu Arg Gin Ser Arg (GAYDLRRRERQSRLRRRERQSR; N-terminal Cys; listed as Homo sapiens) [DPV15b]			weak internalization	nuclear localization peptides				
Val Lys Arg Gly Leu Lys Leu Arg His Val Arg Pro Arg Val Thr Arg Met Asp Val (VKRGLKLRHVRPRVTRMDV; N-terminal Cys added; listed as Homo sapiens) [DPV1047]			weak internalization	nuclear localization peptides				

Reference: US8293700B2, “Anti-bacterial composition especially for controlling gram-negative bacteria, comprising a peptide and an advantageously hydrophobic anti-bacterial agent” (Cellectis, priority 2003, dated 2012)
